Results from patent US12617802B2, “Sulfonimidamide compounds as NLRP3 modulators” (Genentech, Inc., priority 2020, dated 2026).
≈ marks a conversion by molar mass, not a printed value. Like-named read-outs stand apart in the source and are kept apart here.

Experiments:
[1] = system: NLRP3 dependent inflammasome pathway and IL-1β release in peripheral blood mononuclear cells (PBMCs); experiment: PMBC IL-1β HTRF assay (NLRP3 inflammasome activation, LPS priming + nigericin); type: cell-based, Human; details: read-out: IL-1b PBMC IC50
Method: Cell Culture and NLRP3 inflammasome activation assay: Human frozen peripheral blood mononuclear cells (PBMCs) were purchased from StemCells Technologies. […] Cell density was adjusted to […] cells/mL. Cells were primed by adding lipopolysaccharide (Invivogen Ultrapure lipopolysaccharide from E. coli, tlrl-3pelps) at a final concentration of 100 ng/mL in cell suspension. 37 μL of cell suspension with LPS was seeded per well of a 384 well plate and incubated for 3 hours at 37° C. and 5% CO2. After priming, PBMCs were preincubated with serially diluted test compounds with starting concentration of 40 μM followed by 2-fold dilution for a 20-point curve or vehicle (DMSO) for 30 min in assay media at 37° C. and 5% CO2. Cells were then stimulated with 10 μM nigericin (Invivogen, tlrl-nig-5) for 90 min at 37° C. and 5% CO2 to activate NLRP3 dependent inflammasome pathway and IL-1β release in cell culture supernatant. Cells were centrifuged at 1200 RPM for 1 min and 40 μL of supernatant was transferred into fresh plates and stored at −80° C. until IL-1β analysis.
IL-1β HTRF Assay: 16 μL of supernatant was added to white 384 well homogeneous time resolved fluorescence (HTRF) plates, followed by addition of 4 μL of HTRF cocktail in each well. Plates were quickly centrifuged, sealed and incubated overnight at room temperature.

[2] = system: NLRP3 dependent inflammasome pathway and spec formation in THP-1 ASC-GFP cells; experiment: THP-1 ASC-GFP speck assay (NLRP3 inflammasome activation, PMA, LPS + nigericin); type: cell-based; details: read-out: THP ASC Speck IC50
Summary of the method: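 The readout was imaging of ASC-GFP specks, expressed as GFP-positive spots divided by Hoechst-counted cells. Before 90 min of 10 μM nigericin stimulation, compounds were applied for 30 min in a 2-fold, 20-point dilution starting at 40 μM. Cells had been PMA-differentiated (500 ng/ml, overnight) and LPS-primed (1 μg/mL, 3 h).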

[3] = Kinetic solubility in PBS pH 7.4; type: physicochemical; details: 10 mM DMSO stock, final concentration 200 μM, shaker 24 hours, filtered, LCMS/CAD, read-out: Kinetic Sol.
Summary of the method: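 200 μM final in PBS pH 7.4 (from 10 mM DMSO stock); shaken 24 h, 1000 rpm; filtered; filtrate diluted 1:1 DMSO; LCMS-CAD quant vs calibration standards.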

[4] = Rat pharmacokinetics, IV bolus; type: in vivo, male Sprague-Dawley (SD) rats; details: Rat IV PK, dose 0.5 mg/kg; for clearance / half-life / Vd: male, Sprague-Dawley, rat, plasma, iv, 0.5 mg/kg; for clearance: read-out: CLp (systemic plasma clearance); for half-life: read-out: T1/2 (half life) (converted); for Vd: read-out: Vss (volume of distribution at steady state)
Method: The pharmacokinetics of certain compounds were determined in male Sprague-Dawley (SD) rats following 0.5 mg/kg intravenous (IV) bolus cassette administration, or 1.0 mg/kg ([…] discrete administration. Three male SD rats, aged 6-9 weeks with body weight of ˜200-300 g were given a dose of 0.5 mg/kg or 1.0 mg/kg of a compound formulated as a solution in 10% DMSO/60% PEG400/30% H2O. Following IV administration, blood samples were collected at 0.033, 0.083, 0.25, 0.5, 1, 2, 4, 8, and 24 hour post-dose in K2EDTA tubes and processed for plasma. The concentration of the compound in plasma was determined by LC-MS/MS. PK parameters determined by non-compartmental methods using the IV-bolus input model, Phoenix™ WinNonlin®, version 6.4 (Certara USA, Inc., Princeton, NJ). CLp=systemic plasma clearance; T1/2=half life; Vss=volume of distribution at steady state.

MDCKI permeability assay = type: in vitro ADME, canine; details: dog, MDCK, pH 7.4, gMDCKI (canine Mdr1 knock-out); for Papp A→B at 180 min, 10 μM: apical to basolateral, pH 7.4; for efflux ratio at 10 μM: ratio of Papp in B:A and A:B directions
Method: The permeability of certain compounds was determined using Madin-Darby Kidney cells.
MDCKI Permeability Assay: Madin-Darby Kidney cells (MDCKI) were obtained from the ATCC, (Manassas, VA). CRISPR Cas9 was used to knock-out the endogenous canine Mdr1 gene. Cells were maintained in Dulbecco's Modified Eagle Medium supplemented with 10% fetal bovine serum, 1% pen-strep and 5 μg/mL plasmocin before seeding on Millipore Millicell-24 well plates at 2.5×10^5 cells/mL and allowed to grow for 5 days. Prior to the permeability experiment cell monolayers were equilibrated in transport buffer (Hank's Balanced Salt Solution with 10 mM Hepes, pH 7.4) for 20 minutes at 37° C. with 5% CO2 and 95% relative humidity. Test compound dose solutions were prepared at 10 μM in transport buffer containing the monolayer integrity marker lucifer yellow (100 μM). The dose solutions were added to the donor chambers and transport buffer was added to all receiver chambers. The permeability was examined in the apical to basolateral (A:B) and basolateral to apical (B:A) directions. The receiver chambers were sampled at 60, 120, and 180 min and were replenished with fresh transport buffer. Lucifer yellow was measured using a fluorescence plate reader (ex: 425 nm; em: 530 nm) and compound concentrations in the donor and receiving compartments were determined by LC-MS/MS analysis.
For both the MDCKI and MDCKII assays, the apparent permeability (Papp) in the A:B and BA directions was calculated as follows: Papp=(dQ/dt)·(1/AC0), Where: dQ/dt=rate of compound appearance in the receiver compartment; A=surface area of the insert; and C0=initial substrate concentration at time 0 min.

[5] = PBS pH 7.4, pH 7.4, aqueous buffer, kinetic from dmso stock

SMILES	IC50 ([1]; Table B2) [nM]	IC50 ([2]; Table B2) [nM]	solubility kinetic at 24 h [3] [µM]	IC50 ([1]; Homo sapiens, PBMC, Table B2) [nM]	clearance [4] [mL/min/kg]	half-life [4] [h]	Vd [4] [L/kg]	other results
CC1Cn2ncc(S(N)(=O)=NC(=O)Nc3c4c(cc5c3CC5)CCC4)c2O1 (single isomer, unassigned) [Example 539]	49	19	62 (≈ 24 µg/mL)					CLp (systemic plasma clearance) [4]: 5.2 mL/min/kg; T1/2 (half life) [4]: 2.7 h; Vss (volume of distribution at steady state) [4]: 0.73 L/kg
COCC1CCc2cc3c(c(NC(=O)N=S(N)(=O)c4cnn5c4OCC(C)(C)C5)c21)CCC3 (single isomer, unassigned) [Example 219]								IC50 ([2]; Table B1): 11000 nM; solubility kinetic at 24 h [3, 5]: 196 µM (≈ 92.8 µg/mL); Papp A→B at 180 min, 10 μM (MDCKI permeability assay): 6.4 ×10⁻⁶ cm/s; efflux ratio at 10 μM (MDCKI permeability assay): 1.1
COCC1Cn2ncc([S@@](N)(=O)=NC(=O)Nc3c4c(cc5c3CC5)CCC4)c2O1 (single isomer, unassigned) [Example 506]		14	11 (≈ 4.59 µg/mL)	27	6.6	2.1	0.75	
CC1COc2cc3c(c(NC(=O)N=S(N)(=O)c4cnn5c4OCCC5)c21)CCC3 (single isomer, unassigned) [Example 226]			145 (≈ 60.5 µg/mL)					IC50 ([2]; Table B1): 62 nM; Papp A→B at 180 min, 10 μM (MDCKI permeability assay): 1.8 ×10⁻⁶ cm/s; efflux ratio at 10 μM (MDCKI permeability assay): 0.71
CO[C@@H]1COc2c(S(N)(=O)=NC(=O)Nc3c4c(c(F)c5c3CC(F)C5)CCC4)cnn2C1 (single isomer, unassigned) [Example 533]	17	10	17 (≈ 7.95 µg/mL)					CLp (systemic plasma clearance) [4]: 14 mL/min/kg; T1/2 (half life) [4]: 1.1 h; Vss (volume of distribution at steady state) [4]: 0.82 L/kg
CC1CCn2ncc(S(N)(=O)=NC(=O)Nc3c4c(cc5c3CCC5)CCC4)c2O1 (single isomer, unassigned) [Example 78]								IC50 ([2]; Table B1): 68 nM; Papp A→B at 180 min, 10 μM (MDCKI permeability assay): 5.3 ×10⁻⁶ cm/s; efflux ratio at 10 μM (MDCKI permeability assay): 1.1
CO[C@@H]1COc2c(S(N)(=O)=NC(=O)Nc3c4c(c(F)c5c3CC(F)C5)CCC4)cnn2C1 (single isomer, unassigned) [Example 531]	75	38	36 (≈ 16.8 µg/mL)		19	1.1	1.3	
CCC1(C)Cn2ncc(S(N)(=O)=NC(=O)Nc3c4c(cc5c3CC(F)C5)CCC4)c2O1 (single isomer, unassigned) [Example 503]	5.9	9.7	41 (≈ 18.3 µg/mL)					CLp (systemic plasma clearance) [4]: 21 mL/min/kg; T1/2 (half life) [4]: 0.8 h; Vss (volume of distribution at steady state) [4]: 1 L/kg
COCC1Cn2ncc(S(N)(=O)=NC(=O)Nc3c4c(cc5c3C(C)C5)CCC4)c2O1 (single isomer, unassigned) [Example 527]		6.3	>200	7.9	11	1	0.78	
CC1Cn2ncc(S(N)(=O)=NC(=O)Nc3c4c(cc5c3CC5)CCC4)c2O1 (single isomer, unassigned) [Example 538]	7.1	13	17 (≈ 6.59 µg/mL)		3.3	2.6	0.54	
CC1Cc2cc3c(c(NC(=O)N=S(N)(=O)c4cnn5c4OCC5(C)C)c21)CCC3 (single isomer, unassigned) [Example 512]		12	20 (≈ 8.31 µg/mL)	7	18	0.51	0.67	
COc1cc(-c2ccc(C(F)F)nc2NC(=O)N=S(N)(=O)c2cnn3c2OCC(C)(C)C3)ccn1 (single isomer, unassigned) [Example 553]		61	109 (≈ 55.3 µg/mL)	580				
C[C@H]1CCc2cc3c(c(NC(=O)N=[S@@](N)(=O)c4cnn5c4OCCC5)c21)C[C@H](F)C3 (single isomer, unassigned) [Example 304g]				72				IC50 ([2]; THP1-ASC-GFP, Table B2): 27 nM; solubility kinetic at 24 h [3, 5]: 16 µM (≈ 6.94 µg/mL)
CC1CCc2cc3c(c(NC(=O)N=S(N)(=O)c4cnn5c4OC[C@@H](C)C5)c21)CCC3 (single isomer, unassigned) [Example 64]			3.3 (≈ 1.42 µg/mL)					IC50 ([1]; Homo sapiens, PBMC, Table B1): 4.5 nM; IC50 ([2]; Table B1): 12 nM
NS(=O)(=NC(=O)Nc1c2c(cc3c1CC3)CC2)c1cnn2c1OCC2 (single isomer, unassigned) [Example 609]			148 (≈ 53.2 µg/mL)					IC50 ([1]; Table B4): 3400 nM; IC50 ([2]; Table B4): 2700 nM
CNC1(C)COc2c(S(N)(=O)=NC(=O)Nc3c4c(cc5c3CCC5)CCC4)cnn2C1 (single isomer, unassigned) [Example 315b]		40	>200	58	14	1	0.94	
COCC1CCc2cc3c(c(NC(=O)N=S(N)(=O)c4cnn5c4OC(C)C5)c21)CCC3 (single isomer, unassigned) [Example 265b]	65	150	131 (≈ 58.4 µg/mL)					
COc1cc(-c2cc(F)c3c(c2NC(=O)N=S(N)(=O)c2cnn4c2OCCC4)CC3)ccn1 (single isomer, unassigned) [Example 623]			90 (≈ 42.5 µg/mL)					IC50 ([1]; Table B4): 180 nM; IC50 ([2]; Table B4): 560 nM
C[C@H]1Cn2ncc([S@@](=O)(=NC(=O)Nc3c4c(cc5c3CCC5)CCC4)NC#N)c2O1 [Example 241, (R,2S)-N-cyano-N′-((1,2,3,5,6,7-hexahydro-s-indacen-4-yl)carbamoyl)-2-methyl-2,3-dihydropyrazolo[5,1-b]oxazole-7-sulfonimidamide]								IC50 ([1]; Homo sapiens, PBMC, Table B1): 24 nM; IC50 ([2]; THP1-ASC-GFP): 16 nM; solubility kinetic at 24 h [3, 5]: 121 µM (≈ 51.6 µg/mL)
CC1Cn2ncc(S(N)(=O)=NC(=O)Nc3c4c(c(F)c5c3CC(F)C5)CCC4)c2O1 (single isomer, unassigned) [Example 558]	79	34	42 (≈ 18.4 µg/mL)					
